Test results taken from a melting point compilation (Tetko et al.; mined from patent text by program, amines drawn as free bases though some values may be those of a salt).

melting point [°C]	Structure (SMILES)
163 to 165	CCOC(=O)c1c(N2CCN(C)CC2)c2cc(Cl)ccc2n(C)c1=O
200 to 201	C[C@@H]1CN(c2ccc(C(F)(F)F)nc2)C[C@H](C)N1CC(=O)N1CC=C(c2ccc3c(c2)OCCO3)CC1
196 to 198	CCOC(=O)C(N)=NOC(=O)c1ccc(F)cc1
265 to 266	COc1cc(Nc2c(C#N)cnc3c(Br)csc23)c(Cl)cc1Cl
143 to 145	Cn1ncnc1COc1nc2c(cnn2-c2ccccc2)cc1C(C)(C)C
195 to 198	Cc1cccc(-c2[nH]c(C(C)C)nc2-c2ccc(F)c(-c3cc[nH]n3)c2)n1
70 to 72	CNC(=O)n1nc(Oc2ccc(C(F)(F)F)cc2[N+](=O)[O-])cc1C
161 to 162	CCOc1ccc([C@@H]2CCNC(=O)[C@H]2c2ccccc2)cc1 (relative stereo)
245 to 247	Cc1nc2cc(N(C)C(=O)c3ccc(Cl)cc3Cl)ccc2n1C
138 to 140	CCOC(=O)c1cn(-c2nccs2)c2nc(N3CCC(NC(=O)[C@H](C)NC(=O)OC(C)(C)C)C3)ccc2c1=O (stereo partly drawn)
149 to 152	CC(C)c1ccc(C(=O)CC(c2ccccc2)c2ccccc2)c(C(C)C)c1OS(N)(=O)=O
158 to 160	CN1C(=O)c2cccnc2N(C)c2nc(-c3ccc[nH]3)ccc21
128 to 129	CC(C)(CS(=O)(=O)c1ccc(Oc2ccc(OC(F)(F)F)cc2)cc1)N(O)C=O
168 to 171	NNC(=O)c1ccc(OCc2ccccc2)c(Cl)c1
120 to 122	Nc1c(O)cc(Cl)cc1C(=O)C(F)(F)F
120	CC(NC1CCC(=O)NC1c1ccc(F)cc1)c1cc(C(F)(F)F)cc(C(F)(F)F)c1 (stereo not drawn)
107 to 109	COC(=O)C1=C(C)NC(C)=CC1c1ccccc1OCc1ccc(C)cc1 (stereo not drawn)
133	CCCCC[C@H]1CC[C@H](c2ccc(-c3ccc(CCc4ccc(OCC)cc4)cc3)cc2F)CC1
148 to 149	O=C(c1ccc(Cl)cc1)c1cccc2cc[nH]c12
240 to 241	CP(=O)(O)C(O)C(CN)c1ccc(Cl)cc1 (stereo not drawn)
63 to 64	CCCC(CC(=O)NC(=O)OC(C)(C)C)Nc1ccc(C)cc1 (stereo not drawn)
277 to 280	N#Cc1c(N)nc2ccc([N+](=O)[O-])cc2c1NCc1cccs1
100	Cc1ccc(N=CN(C)C=Nc2ccccn2)c(C)c1
244 to 247	CCOC(=O)c1c[nH]c2c(OC)csc2c1=O

melting point [°C]	Structure (SMILES)
132	Brc1ccc(CSc2nc(-c3ccncc3)ns2)cc1
155 to 157	Cc1cccc(N2CCN(CCc3nc4cc(Br)c5ccccc5c4n3C)CC2)c1
108 to 110	CCN(CC)c1ccc(-n2c(C(F)(F)F)nn(C)c2=S)c(Cl)c1
> 250	CNC(=O)NCc1cccc2c1S(=O)(=O)N=C2C1=C(O)C(C(C)(C)C)N(Cc2ccc(F)cc2)C1=O (stereo not drawn)
152 to 156	COc1ccccc1-c1ccc2c(c1)CC[C@H]1N(C)C(=O)CC[C@]21C
133 to 134	CCOC(=O)c1onc(O)c1C
68 to 70	Cc1nc(C23CC4CC(CC(C4)C2)C3)oc1COC(=O)C(C)(C)O
152 to 154	N#CCCNC(=O)c1cccc(-c2cncc3cc(Cc4cccc(C(F)(F)F)c4)oc23)c1
150 to 151	Brc1ccc2cc(OCc3ccccc3)c(C34CC5CC(CC(C5)C3)C4)cc2c1
208 to 210	COC(=O)N1C(=O)NC(C)=C(C(=O)OC(C)C)C1c1cccc(Cl)c1Cl (stereo not drawn)
135 to 137	C=CCC1(O)CCC2C3CCC4=CC(=O)CCC4C3CCC21CCC (stereo not drawn)
164 to 165	COc1cc(OCC(=O)O)cc(C)c1SCc1sc(-c2ccc(C(F)(F)F)cc2)nc1C
99 to 100	COC(=O)c1cccc(-c2cc(-c3ccccc3)on2)c1
112 to 115	CCc1ccc(C(O)CNC(=C[N+](=O)[O-])NCCSCc2cc(C)c(CN(C)C)s2)cc1 (stereo not drawn)
153 to 155	CCC(=O)Nc1nc(CC(=O)N(C)c2ccc(Cl)cc2)cs1
136 to 137	NS(=O)(=O)CS(=O)(=O)c1ccc(SCCO)cc1
172 to 173	O=C(OCCCCCCO)c1ccc(Oc2c3c(c(Oc4ccc(C(=O)OCCCCCCO)cc4)c4ccccc24)C(=O)c2ccccc2C3=O)cc1
52 to 56	CN(C)CCCN1C(=O)c2cscc2N(C)c2ccccc21
224 to 225	O=C(O)COc1cccc2c1Cc1sc(SC(c3ccccc3)c3ccccc3)nc1-2
75 to 77	CC1(C)OC(C=Cc2cccs2)=CC1=O
130 to 132	CSc1nccc(Oc2ccc(NC(=O)c3cc(F)cc(OC4CCCCC4)c3)c3ccccc23)n1
120 to 122	O=C(c1cccc(Nc2ncnc3ccccc23)c1)N1CCN(c2ncc(Cc3ccccc3)cn2)CC1
171 to 172	O=CC(=C1NCCCS1)[N+](=O)[O-]
135 to 136	Cc1cc(C)c2c(c1O)C(N)C(c1ccccc1)C2 (stereo not drawn)

melting point [°C]	Structure (SMILES)
66 to 67	CC/C(=C\Cn1oc(=O)[nH]c1=O)c1cccc(OCc2nc(-c3ccc(C(F)(F)F)cc3)oc2C)c1
99 to 102	CCCCNC(=O)Oc1ccc(N=C=S)cc1
109 to 110	CCCOc1ccccc1C=C(C=O)C(C=O)=Cc1ccccc1OCCC
152 to 154	COc1ccccc1N1CCN(CC(O)COc2ccc3cc(C(N)=O)oc3c2)CC1 (stereo not drawn)
187 to 190	CC1(C)O[C@@H]2[C@@H](O1)[C@H](C(=O)O)O[C@H]2n1cnc2c(N)nc(I)nc21
188 to 190	N#Cc1ccc(C(=O)Cc2ccc(C#N)cc2[N+](=O)[O-])cc1
159 to 161	COc1cc(C(C)C)ccc1C1(NC(=O)OC(C)C)C(=O)c2ccccc2C1=O
122	O=C(CC1CCN(C(=O)OCc2ccccc2)CC1)c1c[nH]c2ccccc12
260	COc1cc2c(cc1F)C(=O)C(=O)N2
136 to 138	CC1C(=O)N(c2ccc(Sc3ccccc3)cc2)C(=S)N1c1ccccc1 (stereo not drawn)
205 to 206	Cc1c(Cc2cccc(C(F)(F)F)c2)oc2c(-c3cc(C(=O)NCCO)ccn3)cccc12
161 to 164	CCOC(=O)C(Cl)=Cc1cc(NC(=O)C2=C(C(=O)N(C)C)CCCC2)ccc1Cl
161	CCCn1cc(CN(C(=O)C2CCCc3c(O)cccc32)c2ccc(C(C)C)cc2)cn1 (stereo not drawn)
216 to 217	CN(C)Cc1ccc(-c2ccc(S(=O)(=O)n3ccc(C=CC(=O)NO)c3)cc2)cc1
148	COC(=O)NNC(=S)Cc1ccc(Cl)cc1
125 to 126	Cn1cccc1S(=O)(=O)NC(C)(C)C
178 to 182	Nc1ccc(-c2cc3c(Oc4ccc(Cl)cc4)cncc3s2)cc1
142	CCCC(=O)c1cc2nc(CO)n(C)c2cc1C
108 to 110	CCn1c(Br)c(Br)c(C#N)c1Br
50 to 52	[N-]=[N+]=NCC1Cc2cc(Cl)cc(-c3ccsc3)c2O1 (stereo not drawn)
175	COc1ccc(S(=O)(=O)Nc2c(C(=O)NO)cc(C)c(Cc3ccccc3)c2C#N)cc1
46 to 47	CCCCCCCCOc1ccc(C(=O)OC)c(O)c1
> 300	CC(=O)NCC(=O)Nc1cc(Cl)cc(Nc2ncnc3[nH]cc(C(=O)c4ccccc4)c23)c1
238 to 240	CC(=C1SC(=O)NC1=O)c1ccc(OCCOc2c(-c3ccc(Cl)cc3)n(C)c3ccccc3c2=O)cc1

melting point [°C]	Structure (SMILES)
68 to 70	CCCCCCCCCCCCCCCCCCNC(=O)N1CCN(C(=O)c2ccc(CCl)cc2)CC1
102 to 104	CC(=O)OCC1OC(Cl)C(N=[N+]=[N-])C(OC(C)=O)C1OC(C)=O (stereo not drawn)
152 to 153	COc1cc(CO)ccc1OCc1sc(-c2ccccc2)nc1C
173	Cc1ccc(CNc2ccc3c(CNC(=O)c4ccc(F)cc4)cccc3n2)o1
149 to 150	COCC1=C(C(=O)NCCCN2CCC(c3ccc(F)cc3)CC2)C(c2ccc(F)c(F)c2)NC(=O)N1 (single isomer, unassigned; (-))
124 to 126	CON1C(C)(C)CC(OC(=O)c2ccccc2C(=O)OC2CC(C)(C)N(OC)C(C)(C)C2)CC1(C)C
87 to 88	CCc1ccc2scc(CCNC(C)=O)c2c1
34 to 38	O=C(CCNC(=O)[C@@H](O)Cc1ccccc1)OCc1ccccc1
195 to 197	O=C(O)C1=Cc2ccc(O)cc2CC1
288 to 290	O=C1NN(c2ccc(Cl)cc2)C(=O)C1=CNc1ccccc1
133 to 135	CC1(c2ccccc2)Cc2cc(CC(=O)O)c(Cl)c(Cl)c2C1=O (stereo not drawn)
147 to 149	COc1nc2cc([N+](=O)[O-])cc(C=O)c2nc1OC
> 260	O=C1c2ccccc2C(=O)c2[nH]c(-c3ccccc3)nc21
178	O=C(Nc1nc2ccc(OCc3c(Cl)cccc3Cl)cc2s1)C1CC1
276 to 277	O=C1c2ccccc2C(=O)N1c1ncnc2[nH]ccc12
252 to 253	O=Cc1ccc(O)c(CP(=O)(O)O)c1
210 to 213	COC(=O)c1cc(N)nc(-c2ccc(Cl)cc2F)n1
153 to 155	CCc1nn(C2CCCC2)c2cc(C(=O)O)ccc12
42	CCS(=O)(=O)C1=NCN(S(=O)(=O)CC)S1
260 to 262	CNC(=O)c1cc(-c2cccc3nc(Nc4cc(OC)c(OC)c(OC)c4)oc23)cs1
174 to 175	CC(Cc1ccc(Cl)c(OC(F)(F)C(F)F)c1)NC(=O)C1C2=C(C=CC1(O)c1ccc(F)cc1)CCCC=C2 (stereo not drawn)

Structure (SMILES)	melting point [°C]
CN1C[C@H](CN2CCN(C(c3ccccc3)c3ccccc3)CC2)C[C@@H]2c3cccc4[nH]cc(c34)C[C@H]21	230 to 233
CN(Cc1ccccc1)C(=N)N[N+](=O)[O-]	103 to 107
CC1(C)C(=O)N(c2ccc(C#N)c(C(F)(F)F)c2)C(=O)N1CCF	10
[N-]=[N+]=NCCc1ccc(C(N)=O)s1	104 to 105
O=C(Nc1ccc(Cl)cc1)NC1N=C(c2ccccc2)c2ccccc2N(CC(=O)N2CCCC2)C1=O (stereo not drawn)	264 to 266
